Columns and labels:
LOVO cells = assay: LOVO CTG proliferation assay (120 h) (CRC, G13D); type: cell-based; details: CTG 120 h
Summary of the method: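 IC50 comes from a four-parameter fit of CellTiter-Glo viability, expressed as RLU relative to DMSO wells. Compound exposure lasted 120 h in LOVO cells seeded the day before at 1000 cells/well in DMEM with 10% fetal calf serum.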

[1] = tested on: KRAS G12V-dependent Ba/F3 cells; assay: Ba/F3 proliferation assay, KRAS G12V; type: cell-based; details: AlamarBlue;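 also: proliferation IC50 in KRAS G12V-dependent Ba/F3 cells read by AlamarBlue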
Summary of the method: (§1)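 Proliferation of mutant-KRAS-driven Ba/F3 cells cultured without IL-3 is followed with AlamarBlue after compound addition. Curves are fitted from duplicate wells.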

[2] = Metabolic (microsomal) stability assay, human liver microsomes (HLM); type: in vitro ADME; details: predicted clearance as percent of liver blood flow, 1 μM
Summary of the method: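 LC-MS/MS tracked parent disappearance at 0, 5, 15, 30 and 60 min in NADPH-initiated incubations with 1 mg/mL human microsomal protein and 1 μM compound at 37°C, pH 7.5. First-order fits gave intrinsic clearance, which was scaled up and reported as % QH. NADPH-free controls were also run.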

[3] = tested on: KRAS G12C-dependent Ba/F3 cells; assay: Ba/F3 proliferation assay, KRAS G12C; type: cell-based; details: AlamarBlue
Summary of the method: as §1

Row | SMILES | IC50 (LOVO cells; Homo sapiens) | IC50 ([1]; Mus musculus, BaF3, 72 h) | HLM QH [2] | IC50 ([3]; Mus musculus, BaF3, 72 h) | IC50 (LOVO cells) | IC50 ([1]; 72 h) | IC50 ([3]; 72 h)
1 | C[C@@H]1CN(c2nc(-c3noc4c3CCC[C@@]43CCCc4sc(N)c(C#N)c43)nc(O[C@@H](C)[C@@H]3C[C@@H](F)CN3C)c2F)CC2(CC2)N1 [II-158] | 84 nM | 108 nM | 73% | 135 nM | – | – | –
2 | COc1c(O[C@@H](C)[C@@H]2CCCN2C)nc(-c2noc3c2CCC[C@@]32CCCc3sc(N)c(C#N)c32)nc1-n1ccc(C(N)=O)n1 [II-159] | 356 nM | 93 nM | 40% | 147 nM | – | – | –
3 | C[C@H](Oc1cc(N2CC3COCC(C2)N3)nc(-c2noc3c2CCC[C@@]32CCCc3sc(N)c(C#N)c32)n1)[C@@H]1CCCN1C [II-160] | 7610 nM | 2010 nM | 31% | 1720 nM | – | – | –
4 | C[C@@H]1CN(c2cc(O[C@@H](C)[C@@H]3CCCN3C)nc(-c3noc4c3CCC[C@@]43CCCc4sc(N)c(C#N)c43)n2)CCN1 [II-161] | 472 nM | 971 nM | <24% | 910 nM | – | – | –
5 | C[C@H](Oc1cc(N2CCN[C@@H](C)C2)nc(-c2noc3c2CCC[C@@]32CCCc3sc(N)c(C#N)c32)n1)[C@@H]1CCCN1C [II-162] | 401 nM | 574 nM | <24% | 526 nM | – | – | –
6 | C[C@H](Oc1cc(C2=CCNCC2)nc(-c2noc3c2CCC[C@@]32CCCc3sc(N)c(C#N)c32)n1)[C@@H]1CCCN1C [II-164] | 246 nM | 133 nM | <24% | 240 nM | – | – | –
7 | C[C@H](Oc1cc(N2CCNC3(CC3)C2)nc(-c2noc3c2CCC[C@@]32CCCc3sc(N)c(C#N)c32)n1)[C@@H]1C[C@@H](F)CN1C [II-165] | 303 nM | 121 nM | 61% | 109 nM | – | – | –
8 | CC(C)[C@@H]1CN(c2cc(O[C@@H](C)[C@@H]3CCCN3C)nc(-c3noc4c3CCC[C@@]43CCCc4sc(N)c(C#N)c43)n2)CCN1 [II-166] | 863 nM | 430 nM | <24% | 386 nM | – | – | –
9 | C[C@H](Oc1cc(N2C[C@@H]3[C@@H](N)[C@@H]3C2)nc(-c2noc3c2CCC[C@@]32CCCc3sc(N)c(C#N)c32)n1)[C@@H]1CCCN1C [II-167] | 6430 nM | 879 nM | <24% | 884 nM | – | – | –
10 | C[C@H](Oc1cc(-n2cc3c(n2)CNC3)nc(-c2noc3c2CCC[C@@]32CCCc3sc(N)c(C#N)c32)n1)[C@@H]1CCCN1C [II-168] | 193 nM | 26 nM | 62% | 62 nM | – | – | –
11 | CC(C)N1CCCN(c2cc(-n3ccnc3)nc(-c3noc4c3CCC[C@@]43CCCc4sc(N)c(C#N)c43)n2)[C@@H](C)C1 [II-169] | 553 nM | 61 nM | 39% | 107 nM | – | – | –
12 | CC(C)N1CCCN(c2cc(-c3ccn(C)n3)nc(-c3noc4c3CCC[C@@]43CCCc4sc(N)c(C#N)c43)n2)[C@@H](C)C1 [II-170] | 270 nM | 17 nM | 33% | 26 nM | – | – | –
13 | C[C@H](Oc1cc(N2CCN(C)C3(CC3)C2)nc(-c2noc3c2CCC[C@@]32CCCc3sc(N)c(C#N)c32)n1)[C@@H]1CCCN1C [II-171] | 593 nM | 426 nM | 32% | 232 nM | – | – | –
14 | C[C@H](Oc1cc(N2C[C@H](C)N(C)[C@@H](C)C2)nc(-c2noc3c2CCC[C@@]32CCCc3sc(N)c(C#N)c32)n1)[C@@H]1CCCN1C [II-173] | 1230 nM | 678 nM | <24% | 296 nM | – | – | –
15 | C[C@H](Oc1cc(-n2cc3c(n2)CN(C)C3)nc(-c2noc3c2CCC[C@@]32CCCc3sc(N)c(C#N)c32)n1)[C@@H]1CCCN1C [II-174] | 139 nM | 71 nM | 39% | 103 nM | – | – | –
16 | C[C@H](Oc1nc(-c2noc3c2CCC[C@@]32CCCc3sc(N)c(C#N)c32)nc(N2CCN(C)C3(CC3)C2)c1Cl)[C@@H]1C[C@@H](F)CN1C [II-176] | 2680 nM | 1210 nM | 63% | 1310 nM | – | – | –
17 | CC(=O)N1CCN(c2cc(O[C@@H](C)[C@@H]3CCCN3C)nc(-c3noc4c3CCC[C@@]43CCCc4sc(N)c(C#N)c43)n2)CC12CC2 [II-178] | 624 nM | 32 nM | <24% | 31 nM | – | – | –
18 | CC(C)NC(=O)Cc1ccn(-c2cc(O[C@@H](C)[C@@H]3CCCN3C)nc(-c3noc4c3CCC[C@@]43CCCc4sc(N)c(C#N)c43)n2)n1 [II-182] | 38 nM | 3 nM | 35% | 5 nM | – | – | –

Row | SMILES | IC50 (LOVO cells; Homo sapiens) | IC50 ([1]; Mus musculus, BaF3, 72 h) | HLM QH [2] | IC50 ([3]; Mus musculus, BaF3, 72 h) | IC50 (LOVO cells) | IC50 ([1]; 72 h) | IC50 ([3]; 72 h)
19 | CO[C@H]1CCN(C)[C@@H]1[C@H](C)Oc1cc(-n2ccc(CC(=O)NC(C)C)n2)nc(-c2noc3c2CCC[C@@]32CCCc3sc(N)c(C#N)c32)n1 [II-183] | 9 nM | 3 nM | 75% | 2 nM | – | – | –
20 | CO[C@H]1CCN(C)[C@@H]1[C@H](C)Oc1cc(N2CCNC3(CC3)C2)nc(-c2noc3c2CCC[C@@]32CCCc3sc(N)c(C#N)c32)n1 [II-184] | 325 nM | 155 nM | 60% | 98 nM | – | – | –
21 | CO[C@H]1CCN(C)[C@@H]1[C@H](C)Oc1cc(N2CCN(C)C3(CC3)C2)nc(-c2noc3c2CCC[C@@]32CCCc3sc(N)c(C#N)c32)n1 [II-186] | 357 nM | 321 nM | 49% | 192 nM | – | – | –
22 | CO[C@@H]1C[C@@H]([C@H](C)Oc2cc(N3CCNC4(CC4)C3)nc(-c3noc4c3CCC[C@@]43CCCc4sc(N)c(C#N)c43)n2)N(C)C1 [II-187] | 429 nM | 225 nM | 46% | 133 nM | – | – | –
23 | C[C@H](Oc1cc(-n2ccc(C3(O)COC3)n2)nc(-c2noc3c2CCC[C@@]32CCCc3sc(N)c(C#N)c32)n1)[C@@H]1CCCN1C [II-189] | 39 nM | 8 nM | <24% | 9 nM | – | – | –
24 | C[C@H](Oc1cc(-n2ccc(C(=O)N[C@@H]3CCOC3)n2)nc(-c2noc3c2CCC[C@@]32CCCc3sc(N)c(C#N)c32)n1)[C@@H]1CCCN1C [II-192] | 32 nM | 2 nM | 30% | 2 nM | – | – | –
25 | C[C@H](Oc1cc(-n2ccc(C(=O)N[C@H]3CCOC3)n2)nc(-c2noc3c2CCC[C@@]32CCCc3sc(N)c(C#N)c32)n1)[C@@H]1CCCN1C [II-193] | – | – | 31% | – | 12 nM | 2 nM | 2 nM
26 | C[C@H](Oc1cc(-n2ccc(C(=O)N(C)C3COC3)n2)nc(-c2noc3c2CCC[C@@]32CCCc3sc(N)c(C#N)c32)n1)[C@@H]1CCCN1C [II-194] | 13 nM | 4 nM | 30% | 4 nM | – | – | –
27 | COCCNC(=O)c1ccn(-c2cc(O[C@@H](C)[C@@H]3CCCN3C)nc(-c3noc4c3CCC[C@@]43CCCc4sc(N)c(C#N)c43)n2)n1 [II-195] | 12 nM | 2 nM | 44% | 2 nM | – | – | –
28 | CO[C@H]1CCN(C)[C@@H]1[C@H](C)Oc1cc(-n2ccc(C(=O)N[C@@H](C)c3ccccn3)n2)nc(-c2noc3c2CCC[C@@]32CCCc3sc(N)c(C#N)c32)n1 [II-196] | 15 nM | 1 nM | 75% | 1 nM | – | – | –
29 | CO[C@H]1CCN(C)[C@@H]1[C@H](C)Oc1cc(-n2ccc(C(=O)N[C@@H]3CCOC3)n2)nc(-c2noc3c2CCC[C@@]32CCCc3sc(N)c(C#N)c32)n1 [II-197] | 14 nM | 1 nM | 69% | 2 nM | – | – | –
30 | CO[C@H]1CCN(C)[C@@H]1[C@H](C)Oc1cc(-n2ccc(C(=O)N[C@H]3CCOC3)n2)nc(-c2noc3c2CCC[C@@]32CCCc3sc(N)c(C#N)c32)n1 [II-198] | 25 nM | 1 nM | 63% | 1 nM | – | – | –
31 | CO[C@H]1CCN(C)[C@@H]1[C@H](C)Oc1cc(-n2ccc(C(=O)N(C)C3COC3)n2)nc(-c2noc3c2CCC[C@@]32CCCc3sc(N)c(C#N)c32)n1 [II-199] | 34 nM | 3 nM | 67% | 3 nM | – | – | –
32 | COCCNC(=O)c1ccn(-c2cc(O[C@@H](C)[C@@H]3[C@@H](OC)CCN3C)nc(-c3noc4c3CCC[C@@]43CCCc4sc(N)c(C#N)c43)n2)n1 [II-200] | 15 nM | 1 nM | 65% | 1 nM | – | – | –
33 | CO[C@H]1CCN(C)[C@@H]1[C@H](C)Oc1cc(-n2ccc(C(N)=O)n2)nc(-c2noc3c2CCC[C@@]32CCCc3sc(N)c(C#N)c32)n1 [II-201] | 33 nM | 1 nM | 41% | 3 nM | – | – | –
34 | C[C@H](Oc1cc(-n2cc3ccn([C@H]4CCOC4)c(=O)c3n2)nc(-c2noc3c2CCC[C@@]32CCCc3sc(N)c(C#N)c32)n1)[C@@H]1CCCN1C [II-202] | 103 nM | 6 nM | <24% | 18 nM | – | – | –
35 | C[C@H](Oc1cc(-n2cc3ccn([C@@H]4CCOC4)c(=O)c3n2)nc(-c2noc3c2CCC[C@@]32CCCc3sc(N)c(C#N)c32)n1)[C@@H]1CCCN1C [II-203] | 70 nM | 4 nM | <24% | 6 nM | – | – | –
36 | C[C@H](Oc1cc(-n2cc3ccn(C[C@H]4CCOC4)c(=O)c3n2)nc(-c2noc3c2CCC[C@@]32CCCc3sc(N)c(C#N)c32)n1)[C@@H]1CCCN1C [II-204] | 46 nM | 7 nM | <24% | 11 nM | – | – | –

Reference: patent publication US20240174690A1, “ANNULATED 2-AMINO-3-CYANO THIOPHENES AND DERIVATIVES FOR THE TREATMENT OF CANCER” (BOEHRINGER INGELHEIM INTERNATIONAL GMBH, priority 2021, published 2024)
